In brackets after ≈: the same amount, converted by molar mass. Where two headings read alike, the source gives them in different places.
Key:
Test in all cases: In vitro antibacterial activity, two-fold agar-plate dilution method (MIC)
Format in all cases: cell-based
Enterobacter cloacae 963 = conditions: Enterobacter cloacae 963, agar dilution, 37°C for 16 hours
Description: (§1) In vitro antibacterial activity was determined by the two-fold agar-plate dillution method.
(§2) One loopful of an overnight culture of each test starin in Trypticase-soy broth (10^6 viable cells per mt) was streaked on heart infusion agar (Muller-Hinton Agar) containing graded concentrations of representative test compound, and the minimal inhibitory concentration (MIC) was expressed in terms of µg/ml after incubation at 37°C for 16 hours.
(§3) In vitro antibacterial activities of other compounds of the present invention were determined in the same way as in Example 26.

Proleus morgani IFO3848 = conditions: 37°C for 16 hours
Description: as §1, §2, §3

Proleus vulgaria OX-19 = conditions: 37°C for 16 hours
Description: as §1, §2, §3

[1] = test system: Proleus vulgaris IFO 3850
Description: as §1, §2, §3

[2] = test system: Pseudomonas aeruginosa IFO3445; conditions: Pseudomonas aeruginosa IFO3445, agar dilution, 37°C for 16 hours
Description: as §1, §2, §3

Salmonera paratyphi 1015 = test system: Salmonera paratyphi 1015
Description: as §1, §2, §3

[3] = test system: Serratia marcescens IAM1184
Description: as §1, §2, §3

Staphyrococcus Terajima = conditions: Staphyrococcus Terajima, agar dilution, 37°C for 16 hours
Description: as §1, §2, §3

[4] = Proleus vulgaris IFO 3850, agar dilution, 37°C for 16 hours, read-out: MIC
[5] = Serratia marcescens, IAM1184, 16 h

Structure (SMILES)	MIC (Enterobacter cloacae 963) [µg/mL]	MIC (Proleus morgani IFO3848) [µg/mL]	MIC (Proleus vulgaria OX-19) [µg/mL]	MIC ([1]; Proleus vulgaris IFO 3850, agar dilution, 37°C for 16 hours) [µg/mL]	MIC [2] [µg/mL]	MIC (Salmonera paratyphi 1015; Salmonera paratyphi 1015, agar dilution, 37°C for 16 hours) [µg/mL]	MIC ([3]; Serratia marcescens IAM1184, agar dilution, 37°C for 16 hours) [µg/mL]	MIC (Staphyrococcus Terajima) [µg/mL]	MIC (Enterobacter cloacae 963; read-out: MIC) [µg/mL]	MIC (Proleus morgani IFO3848; read-out: MIC) [µg/mL]	MIC [1, 4] [µg/mL]	MIC ([2]; read-out: MIC) [µg/mL]	MIC (Salmonera paratyphi 1015; 16 h) [µg/mL]	MIC [3, 5] [µg/mL]	MIC (Staphyrococcus Terajima; read-out: MIC) [µg/mL]	MIC (Proleus vulgaria OX-19; read-out: MIC) [µg/mL]	MIC ([3]; Serratia marcescens IAM1184, agar dilution, 37°C for 16 hours, read-out: MIC) [µg/mL]	MIC ([1]; 16 h) [µg/mL]
CO/N=C(\C(=O)N[C@@H]1C(=O)N2C(C(=O)[O-])=C(C[N+]34CCCC3CCC4C)CS[C@H]12)c1csc(N)n1 (stereo partly drawn) [Compound (106), (6R,7R)-7-[(Z)-2-(2-aminothiazol-4-yℓ)-2-methoxyiminoacetoamido]-3-(l-aza-8-methl-bicyclo[3,3,0]octane-l-io)methyl-3-cephem-4-carboxylate]	0.2 (≈ 0.384 µM)	0.025 (≈ 0.048 µM)	0.025 (≈ 0.048 µM)	0.0125 (≈ 0.024 µM)	0.78 (≈ 1.5 µM)	0.025 (≈ 0.048 µM)	0.05 (≈ 0.096 µM)	0.2 (≈ 0.384 µM)										
CC(C)(O/N=C(\C(=O)N[C@@H]1C(=O)N2C(C(=O)[O-])=C(C[N+]34CCCC3CCC4)CS[C@H]12)c1csc(N)n1)C(=O)O (stereo partly drawn) [Compound (116), (6R,7R)-7-[(Z)-2-(2-aminothiazol-4-yl)-2-(2-carboxypropyl-2-yloxyimino)acetoamido]-3-(1-azabicyclo[3,3,0]octane-l-io)methyl-3-cephem-4-carboxylate]									0.05 (≈ 0.0864 µM)	0.0063 (≈ 0.0109 µM)	0.0063 (≈ 0.0109 µM)	0.2 (≈ 0.346 µM)	0.0125 (≈ 0.0216 µM)	0.0125 (≈ 0.0216 µM)	0.78 (≈ 1.35 µM)			
CO/N=C(\C(=O)N[C@@H]1C(=O)N2C(C(=O)[O-])=C(C[N+]34CCC(CC3)C4)CS[C@H]12)c1csc(N)n1 [Compound (200), (6R,7R)-7-[(Z)-2-(2-aminothiazol-4-yℓ)-2-methoxyiminoacetoamido]-3-(1-azabicyclo[2,2,1]heptane-l-io)methyl-3-cephem-4-carboxylate]									0.05 (≈ 0.102 µM)	0.0063 (≈ 0.0128 µM)	0.0125 (≈ 0.0254 µM)	1.56 (≈ 3.17 µM)	0.025 (≈ 0.0508 µM)		0.2 (≈ 0.406 µM)	0.05 (≈ 0.102 µM)	0.025 (≈ 0.0508 µM)	
CO/N=C(\C(=O)N[C@@H]1C(=O)N2C(C(=O)[O-])=C(C[N+]34CCC(CC3)C(=O)C4)CS[C@H]12)c1csc(N)n1 [Compound (300), (6R,7R)-7-[(Z)-2-(2-aminothiazol-4-yl)-2-methoxyiminoacetoamido]-3-(1-aza-3-carbonyl-bicyclo[2,2,2]octane-l-io)methyl-3-cephem-4-carboxylate]									0.025 (≈ 0.048 µM)	> 0.0063		0.39 (≈ 0.749 µM)	0.0125 (≈ 0.024 µM)	0.0125 (≈ 0.024 µM)	0.2 (≈ 0.384 µM)	0.025 (≈ 0.048 µM)		0.0125 (≈ 0.024 µM)
CO/N=C(\C(=O)N[C@@H]1C(=O)N2C(C(=O)[O-])=C(C[N+]34CCC(CC3)C(O)C4)CS[C@H]12)c1csc(N)n1 (stereo partly drawn) [Compound (302), (6R,7R)-7-[(Z)-2-(2-aminothiazol-4-yℓ)-2-methoxyiminoacetoamido]-3-(1-aza-3-hydro-xybicyclo[2,2,2]octane-l-io)methyl-3-cephem-4-carboxylate]									0.025 (≈ 0.0478 µM)	0.0063 (≈ 0.0121 µM)	0.0063 (≈ 0.0121 µM)	0.39 (≈ 0.746 µM)	0.0125 (≈ 0.0239 µM)	0.0125 (≈ 0.0239 µM)	0.1 (≈ 0.191 µM)	0.025 (≈ 0.0478 µM)		

Source: patent EP0172919A1, “CEPHALOSPORIN DERIVATIVES, PROCESS FOR THEIR PREPARATION, AND THEIR PHARMACEUTICAL USE” (TEIJIN LIMITED, priority 1984, dated 1985)
